Experimental findings from US4309559A, “Sulphonamides useful as pesticides” (FBC Limited, priority 1977, dated 1982) are described below.

Assay type in all cases: in vivo
Assay [1] relates to Ryegrass (Lolium perenne). In words: Post-emergence foliar spray, herbicidal/growth regulant response, ryegrass. As to conditions: 168 h, foliar spray 11.2 kg/ha, 7 days, 0=no effect, 100=complete kill, read-out: herbicidal or growth regulant response index. The method, boiled down:
(§1)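 Score is a visual index from 0 (no effect) to 100 (complete kill) versus untreated control, assessed seven days after spraying. Plants were treated 14 days post-sowing at a rate equivalent to 11.2 kg/ha in 450 liters per hectare, compound dissolved in 1:1 aqueous acetone.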

Assay [2] has as its system Crabgrass (Digitaria sanguinalis). In words: Pre-emergence soil surface spray, crabgrass. As to conditions: soil surface spray 2.8 kg/ha, 21 days, 0=no effect, 100=complete kill. The method, boiled down:
(§2)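 Visual score 0-100 (0 = no effect, 100 = complete kill) relative to untreated control, taken 21 days after a pre-emergence soil-surface spray at 2.8 kg a.i./ha in 450 l/ha. Compound formulated in 1:1 aqueous acetone; growth at 22° C., RH 65-85%, 14 h/day light at 17,000 lux.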

Assay [3] relates to Barnyardgrass (Echinochloa crus-galli). In words: Pre-emergence soil surface spray, barnyardgrass. The note with it: soil surface spray 2.8 kg/ha, 21 days, 0=no effect, 100=complete kill. The method, boiled down:
as §2

The subject of assay [4] is Sugarbeet (Beta vulgaris). In words: Post-emergence foliar spray, herbicidal/growth regulant response, sugarbeet. The note with it: 168 h, foliar spray 11.2 kg/ha, 7 days, 0=no effect, 100=complete kill, read-out: herbicidal or growth regulant response index. The method in brief:
as §1

The test system of assay [5] is Peas (Pisum sativum). In words: Soil incorporation (attaclay/sand dust), growth regulatory or herbicidal effects, peas. The note with it: Lathyrus oleraceus, 504 h, soil incorporation 26 ppm, 21 days, 0=no effect, 100=complete kill, read-out: growth regulatory or herbicidal effect score. The method, boiled down:
(§3)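 Active ingredient formulated as attaclay/sand dust and mixed into John Innes I potting compost at 26 or 130 ppm w/v (about 11.2 or 56 kg a.i./ha cultivated to 5 cm). Seeds sown in treated soil, grown 21 days at 22° C, 65-85% RH, 14 h light at 13,000 lux; visual score 0-100 versus untreated control.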

For assay [6], the system named is Maize (Zea mays). In words: Soil incorporation (attaclay/sand dust), growth regulatory or herbicidal effects, maize. As to conditions: 504 h, soil incorporation 26 ppm, 21 days, 0=no effect, 100=complete kill, read-out: growth regulatory or herbicidal effect score. The method in brief:
as §3

The subject of assay [7] is Linseed (Linum usitatissimum). In words: Soil incorporation (attaclay/sand dust), growth regulatory or herbicidal effects, linseed. As to conditions: 504 h, soil incorporation 26 ppm, 21 days, 0=no effect, 100=complete kill, read-out: growth regulatory or herbicidal effect score. The method, boiled down: as §3
Assay [8] has as its system French beans (Phaseolus vulgaris). Description: Post-emergence foliar spray, herbicidal/growth regulant response, French beans. The note with it: foliar spray 11.2 kg/ha, 7 days, 0=no effect, 100=complete kill. The method, boiled down: as §1
Assay [9] concerns Mustard (Sinapis alba). In words: Post-emergence foliar spray, herbicidal/growth regulant response, mustard. As to conditions: 168 h, foliar spray 11.2 kg/ha, 7 days, 0=no effect, 100=complete kill, read-out: herbicidal or growth regulant response index. The method, boiled down:
as §1

Assay [10] relates to Linseed (Linum usitatissimum). In words: Post-emergence foliar spray, herbicidal/growth regulant response, linseed. The note with it: 168 h, foliar spray 11.2 kg/ha, 7 days, 0=no effect, 100=complete kill, read-out: herbicidal or growth regulant response index. The method, boiled down: as §1

SMILES strings stand for the structures.

For the compound `CCCS(=O)(=O)N(c1c(C)cccc1C)C(C)C(=O)OCC` (stereo not shown) [Example 24, N-(1-[ethoxycarbonyl]ethyl)-2',6'-dimethyl-1-propanesulphonanilide], the pest or weed control at 11200 g/ha worked out at 75% in [1], 100% in [9] and 90% in [10]. Moreover, the results for the “growth regulatory or herbicidal effect score” value in [2] and in assay [3] were 100 and 80, respectively. Further, the plant injury at 11200 g/ha in assay [4] was found to be 90%. The values for the pest or weed control at 26 µg/mL in assay [5] and in assay [7] were 0% and 100%, respectively. Moreover, in [6], the plant injury at 26 µg/mL is 60%. Also, the “herbicidal or growth regulant response index” value in assay [8] was found to be 100.
